{"source": "paper PMC7614683", "about": "“A small molecule PI3Kα activator for cardioprotection and neuroregeneration” (Nature, 2023)", "experiment_in_all_cases": "SelectScreen Z-LYTE kinase activity assay (SI Table 6)", "format_in_all_cases": "biochemical", "key": {"[1]": {"target": "protein kinases of the Z-LYTE panel (Homo sapiens, UniProt P22607)", "sequence (P22607 23-806)": "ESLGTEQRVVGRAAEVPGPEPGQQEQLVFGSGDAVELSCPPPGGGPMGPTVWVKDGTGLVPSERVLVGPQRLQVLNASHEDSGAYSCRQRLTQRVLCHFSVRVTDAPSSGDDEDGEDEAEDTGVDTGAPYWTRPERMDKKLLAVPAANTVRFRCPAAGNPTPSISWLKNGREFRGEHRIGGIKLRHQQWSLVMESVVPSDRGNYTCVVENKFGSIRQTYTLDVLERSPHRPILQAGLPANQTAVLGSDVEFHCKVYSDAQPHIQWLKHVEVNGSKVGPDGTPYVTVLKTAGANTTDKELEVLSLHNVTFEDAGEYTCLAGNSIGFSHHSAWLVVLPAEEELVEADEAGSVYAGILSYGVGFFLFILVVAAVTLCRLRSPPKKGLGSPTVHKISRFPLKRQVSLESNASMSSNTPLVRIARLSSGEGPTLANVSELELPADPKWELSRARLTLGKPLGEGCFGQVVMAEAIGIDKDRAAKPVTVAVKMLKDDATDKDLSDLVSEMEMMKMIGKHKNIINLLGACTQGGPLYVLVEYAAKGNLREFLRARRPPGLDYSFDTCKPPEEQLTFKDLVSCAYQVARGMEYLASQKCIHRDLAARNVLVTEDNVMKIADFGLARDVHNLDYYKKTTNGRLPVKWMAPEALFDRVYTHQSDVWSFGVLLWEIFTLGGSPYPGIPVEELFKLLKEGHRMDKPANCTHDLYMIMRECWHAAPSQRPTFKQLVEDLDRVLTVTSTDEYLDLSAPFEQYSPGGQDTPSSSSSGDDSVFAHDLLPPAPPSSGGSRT", "procedure,_shortened": "(§1)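 Compound 1938 counterscreened at 1 μM against 133 protein and 7 lipid kinases in the SelectScreen panel, using Adapta, LanthaScreen binding and Z-LYTE formats as applicable.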"}, "[2]": {"target": "protein kinases of the Z-LYTE panel (Homo sapiens, UniProt Q05397)", "procedure,_shortened": "as §1"}, "[3]": {"target": "protein kinases of the Z-LYTE panel (Homo sapiens, UniProt P06241)", "procedure,_shortened": "as §1"}, "[4]": {"target": "protein kinases of the Z-LYTE panel (Homo sapiens, UniProt P17612)", "procedure,_shortened": "as §1"}, "[5]": {"target": "protein kinases of the Z-LYTE panel (Homo sapiens, UniProt P14616)", "procedure,_shortened": "as §1"}, "[6]": {"target": "protein kinases of the Z-LYTE panel (Homo sapiens, UniProt P24941)", "procedure,_shortened": "as §1"}, "[7]": {"target": "protein kinases of the Z-LYTE panel (Homo sapiens, UniProt Q13554)", "sequence (Q13554 whole entry)": "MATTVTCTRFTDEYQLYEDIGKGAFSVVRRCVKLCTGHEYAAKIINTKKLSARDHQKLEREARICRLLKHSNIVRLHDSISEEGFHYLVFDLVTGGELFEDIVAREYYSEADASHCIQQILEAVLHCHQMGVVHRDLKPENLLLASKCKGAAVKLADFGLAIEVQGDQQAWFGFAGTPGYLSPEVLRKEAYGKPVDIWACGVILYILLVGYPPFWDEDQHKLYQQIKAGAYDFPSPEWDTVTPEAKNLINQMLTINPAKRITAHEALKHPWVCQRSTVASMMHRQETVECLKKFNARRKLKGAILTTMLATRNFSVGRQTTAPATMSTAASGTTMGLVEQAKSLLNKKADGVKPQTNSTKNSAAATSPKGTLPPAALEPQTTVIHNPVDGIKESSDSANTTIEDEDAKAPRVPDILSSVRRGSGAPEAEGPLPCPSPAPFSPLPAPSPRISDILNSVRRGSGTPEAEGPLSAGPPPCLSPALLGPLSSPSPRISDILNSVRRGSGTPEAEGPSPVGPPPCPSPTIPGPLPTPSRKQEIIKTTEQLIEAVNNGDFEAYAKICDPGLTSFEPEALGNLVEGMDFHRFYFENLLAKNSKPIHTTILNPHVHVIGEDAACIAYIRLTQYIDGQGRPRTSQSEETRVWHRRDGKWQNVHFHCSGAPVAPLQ", "procedure,_shortened": "as §1"}, "[8]": {"target": "protein kinases of the Z-LYTE panel (Homo sapiens, UniProt P35968)", "sequence (P35968 20-1356)": "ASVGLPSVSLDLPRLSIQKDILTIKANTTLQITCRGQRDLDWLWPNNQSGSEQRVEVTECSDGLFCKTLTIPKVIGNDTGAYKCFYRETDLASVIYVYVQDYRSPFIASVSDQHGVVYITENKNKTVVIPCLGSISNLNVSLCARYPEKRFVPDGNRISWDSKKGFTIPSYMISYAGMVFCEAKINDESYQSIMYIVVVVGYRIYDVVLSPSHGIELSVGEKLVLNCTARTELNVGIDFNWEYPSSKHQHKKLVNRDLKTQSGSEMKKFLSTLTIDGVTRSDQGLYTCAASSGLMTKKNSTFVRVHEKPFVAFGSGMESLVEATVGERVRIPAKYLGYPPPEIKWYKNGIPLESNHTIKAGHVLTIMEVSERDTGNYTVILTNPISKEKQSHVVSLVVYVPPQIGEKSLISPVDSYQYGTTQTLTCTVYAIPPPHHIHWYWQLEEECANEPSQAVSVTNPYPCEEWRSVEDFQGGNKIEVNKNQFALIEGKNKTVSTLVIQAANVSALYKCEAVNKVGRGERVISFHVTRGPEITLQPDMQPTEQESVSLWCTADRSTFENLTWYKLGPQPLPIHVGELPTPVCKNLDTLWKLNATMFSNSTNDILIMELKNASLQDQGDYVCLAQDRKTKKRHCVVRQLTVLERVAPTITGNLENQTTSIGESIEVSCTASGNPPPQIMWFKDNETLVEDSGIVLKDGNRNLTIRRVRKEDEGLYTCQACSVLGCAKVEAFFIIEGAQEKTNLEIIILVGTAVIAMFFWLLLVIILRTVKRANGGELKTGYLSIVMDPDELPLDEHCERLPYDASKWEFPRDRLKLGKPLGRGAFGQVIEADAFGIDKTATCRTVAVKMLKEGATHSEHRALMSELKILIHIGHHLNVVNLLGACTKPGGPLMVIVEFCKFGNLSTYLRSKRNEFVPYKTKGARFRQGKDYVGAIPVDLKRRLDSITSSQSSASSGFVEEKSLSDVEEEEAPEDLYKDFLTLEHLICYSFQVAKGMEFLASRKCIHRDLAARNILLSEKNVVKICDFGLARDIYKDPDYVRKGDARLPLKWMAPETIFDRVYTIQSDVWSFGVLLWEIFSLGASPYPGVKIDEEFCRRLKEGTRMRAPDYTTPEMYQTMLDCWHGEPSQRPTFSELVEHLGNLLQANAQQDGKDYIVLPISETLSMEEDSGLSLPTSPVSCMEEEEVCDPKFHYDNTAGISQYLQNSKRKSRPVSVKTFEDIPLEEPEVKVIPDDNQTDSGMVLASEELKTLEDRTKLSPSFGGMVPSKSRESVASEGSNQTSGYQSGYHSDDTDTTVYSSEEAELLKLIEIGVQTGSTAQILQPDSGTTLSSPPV", "procedure,_shortened": "as §1"}, "[9]": {"target": "protein kinases of the Z-LYTE panel (Homo sapiens, UniProt P21802)", "sequence (P21802 22-821)": "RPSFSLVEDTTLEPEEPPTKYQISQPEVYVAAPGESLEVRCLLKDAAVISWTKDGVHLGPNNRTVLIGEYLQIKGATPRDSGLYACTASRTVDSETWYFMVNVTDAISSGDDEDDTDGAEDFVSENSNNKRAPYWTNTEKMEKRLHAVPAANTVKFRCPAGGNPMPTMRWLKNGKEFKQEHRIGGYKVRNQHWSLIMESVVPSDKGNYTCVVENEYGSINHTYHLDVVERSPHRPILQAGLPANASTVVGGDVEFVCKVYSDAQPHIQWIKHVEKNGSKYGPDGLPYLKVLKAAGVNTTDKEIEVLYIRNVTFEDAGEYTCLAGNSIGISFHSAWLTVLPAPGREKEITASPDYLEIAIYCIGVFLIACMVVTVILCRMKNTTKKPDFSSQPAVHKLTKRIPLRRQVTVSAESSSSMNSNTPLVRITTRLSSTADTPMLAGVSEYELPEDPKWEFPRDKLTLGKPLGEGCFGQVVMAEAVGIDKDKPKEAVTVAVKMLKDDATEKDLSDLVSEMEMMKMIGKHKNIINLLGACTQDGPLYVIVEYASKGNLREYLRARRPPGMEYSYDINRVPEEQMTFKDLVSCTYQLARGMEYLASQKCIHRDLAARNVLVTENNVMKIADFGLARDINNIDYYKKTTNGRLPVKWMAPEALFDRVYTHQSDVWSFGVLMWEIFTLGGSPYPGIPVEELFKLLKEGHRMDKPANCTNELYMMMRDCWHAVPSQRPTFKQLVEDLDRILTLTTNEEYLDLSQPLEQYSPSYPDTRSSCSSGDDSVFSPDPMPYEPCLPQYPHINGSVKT", "procedure,_shortened": "as §1"}, "[10]": {"target": "protein kinases of the Z-LYTE panel (Homo sapiens, UniProt P49759)", "procedure,_shortened": "as §1"}, "[11]": {"target": "protein kinases of the Z-LYTE panel (Homo sapiens, UniProt P09619)", "sequence (P09619 33-1106)": "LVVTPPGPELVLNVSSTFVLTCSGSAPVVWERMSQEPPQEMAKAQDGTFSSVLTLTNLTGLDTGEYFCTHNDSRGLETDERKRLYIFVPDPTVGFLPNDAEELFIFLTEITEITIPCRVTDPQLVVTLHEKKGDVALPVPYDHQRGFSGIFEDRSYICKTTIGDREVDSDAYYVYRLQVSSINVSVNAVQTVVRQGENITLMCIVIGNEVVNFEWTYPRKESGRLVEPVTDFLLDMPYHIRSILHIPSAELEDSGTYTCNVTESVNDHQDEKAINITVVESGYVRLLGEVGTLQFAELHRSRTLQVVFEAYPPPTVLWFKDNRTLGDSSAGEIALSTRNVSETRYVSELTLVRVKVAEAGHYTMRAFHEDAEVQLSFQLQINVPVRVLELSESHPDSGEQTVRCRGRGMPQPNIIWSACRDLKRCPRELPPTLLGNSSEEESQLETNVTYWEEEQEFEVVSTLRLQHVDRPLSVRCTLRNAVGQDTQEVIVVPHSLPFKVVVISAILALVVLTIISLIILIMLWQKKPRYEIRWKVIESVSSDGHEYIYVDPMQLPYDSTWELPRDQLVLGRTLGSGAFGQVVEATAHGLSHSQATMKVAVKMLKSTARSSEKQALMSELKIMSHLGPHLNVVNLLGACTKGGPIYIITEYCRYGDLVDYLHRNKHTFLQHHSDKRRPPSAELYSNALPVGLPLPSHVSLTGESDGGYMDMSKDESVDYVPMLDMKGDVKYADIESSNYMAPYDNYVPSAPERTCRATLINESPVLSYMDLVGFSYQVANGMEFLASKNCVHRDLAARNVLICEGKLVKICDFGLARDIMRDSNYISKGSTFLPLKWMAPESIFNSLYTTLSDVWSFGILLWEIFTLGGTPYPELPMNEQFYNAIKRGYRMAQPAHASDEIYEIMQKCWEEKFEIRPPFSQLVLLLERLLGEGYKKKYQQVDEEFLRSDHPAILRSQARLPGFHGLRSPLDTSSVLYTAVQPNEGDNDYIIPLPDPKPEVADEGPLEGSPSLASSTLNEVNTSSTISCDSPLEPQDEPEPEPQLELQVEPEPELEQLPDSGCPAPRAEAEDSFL", "procedure,_shortened": "as §1"}, "[12]": {"target": "protein kinases of the Z-LYTE panel (Homo sapiens, UniProt P08922)", "procedure,_shortened": "as §1"}, "[13]": {"target": "protein kinases of the Z-LYTE panel (Homo sapiens, UniProt Q9P1W9)", "sequence (Q9P1W9 whole entry)": "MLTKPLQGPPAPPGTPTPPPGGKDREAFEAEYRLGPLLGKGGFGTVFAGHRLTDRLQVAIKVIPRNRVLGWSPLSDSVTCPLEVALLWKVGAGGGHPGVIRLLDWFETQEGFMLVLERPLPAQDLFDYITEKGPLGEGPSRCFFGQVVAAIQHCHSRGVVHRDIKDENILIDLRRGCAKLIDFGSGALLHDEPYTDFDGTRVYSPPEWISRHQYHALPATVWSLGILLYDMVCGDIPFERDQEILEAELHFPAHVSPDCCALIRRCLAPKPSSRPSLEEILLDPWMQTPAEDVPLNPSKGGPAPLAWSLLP", "procedure,_shortened": "as §1"}, "[14]": {"target": "protein kinases of the Z-LYTE panel (Homo sapiens, UniProt Q16288)", "procedure,_shortened": "as §1"}}, "note": "Read-outs that look alike come from different tables or passages of the source.", "data": [{"smiles": "CCN1CCN(c2ccc(Nc3cc(Nc4cccc5c4N(C(C)=O)CC5)ccn3)cc2)CC1", "note": "[Compound 1938]", "values": [{"measurement": "inhibition at 1 µM", "setting": "[1]; read-out: % Inhibition Point 1", "value": 6, "unit": "%"}, {"measurement": "inhibition at 1 µM", "setting": "[1]; read-out: % Inhibition Point 2", "value": 6, "unit": "%"}, {"measurement": "inhibition at 1 µM", "setting": "[1]; read-out: % Inhibition mean", "value": 6, "unit": "%"}, {"measurement": "inhibition at 1 µM", "setting": "[2]; read-out: % Inhibition Point 1", "value": 47, "unit": "%"}, {"measurement": "inhibition at 1 µM", "setting": "[2]; read-out: % Inhibition Point 2", "value": 47, "unit": "%"}, {"measurement": "inhibition at 1 µM", "setting": "[2]; read-out: % Inhibition mean", "value": 47, "unit": "%"}, {"measurement": "inhibition at 1 µM", "setting": "[3]; read-out: % Inhibition Point 1", "value": 6, "unit": "%"}, {"measurement": "inhibition at 1 µM", "setting": "[3]; read-out: % Inhibition Point 2", "value": 7, "unit": "%"}, {"measurement": "inhibition at 1 µM", "setting": "[3]; read-out: % Inhibition mean", "value": 6.46, "unit": "%"}, {"measurement": "inhibition at 1 µM", "setting": "[4]; read-out: % Inhibition Point 1", "value": 3, "unit": "%"}, {"measurement": "inhibition at 1 µM", "setting": "[4]; read-out: % Inhibition Point 2", "value": 5, "unit": "%"}, {"measurement": "inhibition at 1 µM", "setting": "[4]; read-out: % Inhibition mean", "value": 4, "unit": "%"}, {"measurement": "inhibition at 1 µM", "setting": "[5]; read-out: % Inhibition Point 1", "value": 9, "unit": "%"}, {"measurement": "inhibition at 1 µM", "setting": "[5]; read-out: % Inhibition Point 2", "value": 8, "unit": "%"}, {"measurement": "inhibition at 1 µM", "setting": "[5]; read-out: % Inhibition mean", "value": 8, "unit": "%"}, {"measurement": "inhibition at 1 µM", "setting": "[6]; read-out: % Inhibition Point 1", "value": 1.74, "unit": "%"}, {"measurement": "inhibition at 1 µM", "setting": "[6]; read-out: % Inhibition Point 2", "value": 3.28, "unit": "%"}, {"measurement": "inhibition at 1 µM", "setting": "[6]; read-out: % Inhibition mean", "value": 2.51, "unit": "%"}, {"measurement": "inhibition at 1 µM", "setting": "[7]; read-out: % Inhibition Point 1", "value": 8, "unit": "%"}, {"measurement": "inhibition at 1 µM", "setting": "[7]; read-out: % Inhibition Point 2", "value": 6, "unit": "%"}, {"measurement": "inhibition at 1 µM", "setting": "[7]; read-out: % Inhibition mean", "value": 7, "unit": "%"}, {"measurement": "inhibition at 1 µM", "setting": "[8]; read-out: % Inhibition Point 1", "value": 10, "unit": "%"}, {"measurement": "inhibition at 1 µM", "setting": "[8]; read-out: % Inhibition Point 2", "value": 6.41, "unit": "%"}, {"measurement": "inhibition at 1 µM", "setting": "[8]; read-out: % Inhibition mean", "value": 8, "unit": "%"}, {"measurement": "inhibition at 1 µM", "setting": "[9]; read-out: % Inhibition Point 1", "value": 13, "unit": "%"}, {"measurement": "inhibition at 1 µM", "setting": "[9]; read-out: % Inhibition Point 2", "value": 16, "unit": "%"}, {"measurement": "inhibition at 1 µM", "setting": "[9]; read-out: % Inhibition mean", "value": 14, "unit": "%"}, {"measurement": "inhibition at 1 µM", "setting": "[10]; read-out: % Inhibition Point 1", "value": 2.18, "unit": "%"}, {"measurement": "inhibition at 1 µM", "setting": "[10]; read-out: % Inhibition Point 2", "value": 6, "unit": "%"}, {"measurement": "inhibition at 1 µM", "setting": "[10]; read-out: % Inhibition mean", "value": 4, "unit": "%"}, {"measurement": "inhibition at 1 µM", "setting": "[11]; read-out: % Inhibition Point 1", "value": 7, "unit": "%"}, {"measurement": "inhibition at 1 µM", "setting": "[11]; read-out: % Inhibition Point 2", "value": 7, "unit": "%"}, {"measurement": "inhibition at 1 µM", "setting": "[11]; read-out: % Inhibition mean", "value": 7, "unit": "%"}, {"measurement": "inhibition at 1 µM", "setting": "[12]; read-out: % Inhibition Point 1", "value": 19, "unit": "%"}, {"measurement": "inhibition at 1 µM", "setting": "[12]; read-out: % Inhibition Point 2", "value": 22, "unit": "%"}, {"measurement": "inhibition at 1 µM", "setting": "[12]; read-out: % Inhibition mean", "value": 21, "unit": "%"}, {"measurement": "inhibition at 1 µM", "setting": "[13]; read-out: % Inhibition Point 1", "value": 2, "unit": "%"}, {"measurement": "inhibition at 1 µM", "setting": "[13]; read-out: % Inhibition Point 2", "value": 0.0719, "unit": "%"}, {"measurement": "inhibition at 1 µM", "setting": "[13]; read-out: % Inhibition mean", "value": 1, "unit": "%"}, {"measurement": "inhibition at 1 µM", "setting": "[14]; read-out: % Inhibition Point 1", "value": 12, "unit": "%"}, {"measurement": "inhibition at 1 µM", "setting": "[14]; read-out: % Inhibition Point 2", "value": 14, "unit": "%"}, {"measurement": "inhibition at 1 µM", "setting": "[14]; read-out: % Inhibition mean", "value": 13, "unit": "%"}]}]}
